Peptide text beside a SMILES is read from it.
Tested on: Jurkat T cell line
Assay: Binding of Jurkat cells to frozen human RA synovial sections
Assay type: cell-based
Conditions: 10-mer at 500 μg/ml; inhibitor peptide at its IC50
Procedure: Binding studies were carried out using the Jurkat T cell line and frozen RA synovial sections. […] Stimulated MOLT-4 cells behaved similarly.

With `CC[C@H](C)[C@H](NC(=O)[C@H](CCC(=O)O)NC(=O)[C@@H]1CCCN1C(=O)CN)C(=O)N[C@@H](CC(C)C)C(=O)N[C@@H](CC(=O)O)C(=O)N[C@H](C(=O)N1CCC[C@H]1C(=O)N[C@@H](CO)C(=O)N[C@H](C(=O)O)[C@@H](C)O)C(C)C` [G P E I L D V P S T free amine free acid, GPEILDVPST] (H-GPEILDVPST-OH) the “inhibition of Jurkat cell adhesion to RA synovial sections” value was “could be inhibited”.

From patent publication US6117840A, “CS-1 peptidomimetics, compositions and methods of using the same” (Cytel Corporation, priority 1997, dated 2000)
